Assay results as given in patent US9487752B2, “Priming of pluripotent stem cells for neural differentiation” (Cellular Dynamics International, Inc., priority 2011, dated 2016).

Legend:
Assay type in all cases: cell-based
iPSC line (2.042) = experiment: Neural differentiation of iPSC line 2.042, neuron purity by βIII-tubulin/Nestin double stains; settings: only one of 10 μM SB-431542 or 1 μM dorsomorphin in medium on Days −2, −1, 0 and 1; Day 28 (FIG. 3C)
iPS cell line 8004 [1] = experiment: Neuron purity of iPS cell line 8004 by TUJ1/Nestin flow cytometry staining; settings: 10 μM SB-431542 on Days −2, −1, 0, and 1; Day 28
Procedure: (§1) iPS cell line 8004 was differentiated using the procedure of Example 3 with and without 10 μM SB-431542 added to culture medium on Days −2, −1, 0, and 1. On Day 28, neuron purity as determined by TUJ1/Nestin flow cytometry staining was 80% without SB-431542 and 97% with SB-431542. Beginning on Day 30 of the. procedure, cells were fed 90% 1× DMEM-F12/10% FBS every 7 days. Astrocyte outgrowth was first detected on Day 45. On Day 48, cultures were assayed by flow cytometry for astrocyte purity using GFAP as a marker for astrocytes. […] In summary, the methods detailed herein provide for a method to produce cultures of high purity astrocytes in a time efficient manner relative to existing astrocyte differentiation methods.

iPS cell line 8004 [2] = experiment: Astrocyte purity of iPS cell line 8004 cultures by flow cytometry using GFAP as marker; settings: 10 μM SB-431542 on Days −2, −1, 0, and 1; fed 10% FBS from Day 30; Day 48
Procedure: as §1

iPSC line 1729c4 = experiment: Neural differentiation of iPSC line 1729c4, purity by flow cytometry with βIII-tubulin/Nestin double stains; settings: 10 ng/mL FGF8 present on Day −3; Day 27
Text: iPS cells were maintained on Matrigel in TeSR medium (Stem Cell Technologies) and sodium citrate split one passage prior to aggregate formation and grown in T150 flasks, but can be scaled for starting cells in other culture formats. Alternate pluripotent cell culture media (such as E8 media: Chen et al., 2011), containing varying concentrations of TGFβ and/or bFGF, can be used to optimize neural differentiation of different iPS cell lines or clones. Pluripotent cell cultures were then “primed” for differentiation three or four days prior to aggregate formation. […]
On Day 0 of the neuron differentiation process (specifically, aggregate formation), cells are harvested from T150 flasks (up to five flasks at one time) and, after media is aspirated, 12 mL of warm TrypLE is added to each flask and the cells are incubated at 37° C. for 7 minutes. […] The tubes may be combined and cells are counted (CEDEX HiRES cell counter). […] Diluted cell stock is counted (CEDEX HiRES cell counter). […]

## NC(=O)c1ccc(-c2nc(-c3ccc4c(c3)OCO4)c(-c3ccccn3)[nH]2)cc1 [SB-431542]
iPSC line (2.042)
  neuron purity by βIII-tubulin/Nestin double stains compared to both inhibitors: similarly high neuron purities
iPS cell line 8004 [1]
  neuron purity by TUJ1/Nestin flow cytometry staining: 97%
iPS cell line 8004 [2]
  GFAP positive cells (astrocyte purity): 56%

B1: FGF8: fibroblast growth factor 8, reported as an endogenous neural inducer (protein, UniProt P55075 23-233, looked up)
Fibroblast growth factor 8: QEGPGRGPALGRELASLFRAGREPQGVSQQHVREQSLVTDQLSRRLIRTYQLYSRTSGKHVQVLANKRINAMAEDGDPFAKLIVETDTFGSRVRVRGAETGLYICMNKKGKLIAKSNGKGKDCVFTEIVLENNYTALQNAKYEGWYMAFTRKGRPRKGSKTRQHQREVHFMKRLPRGHHTTEQSLRFEFLNYPPFTRSLRGSQRTWAPEPR
iPSC line 1729c4
  βIII-tubulin/Nestin positive cells: 90%
